Read-outs that look alike come from different tables or passages of the source.
Assays:
[1] = system: VDR; conditions: cited from earlier work; for IC50: literature values, read-out: VDR Affinity IC50; for VDR affinity, % of that of 1: relative to 1,25(OH)2D3 (1)
[2] = system: VDR; conditions: literature values, cited from earlier work; for EC50: read-out: Transcriptional Activity EC50
[3] = system: VDR; conditions: antagonist activity for 1; read-out: Antagonistic Activity IC50; cited from earlier work
[4] = system: human dedifferentiated fat (DFAT) cells; assay: Osteogenic differentiation assay: ALP activity in human DFAT cells; type: cell-based; conditions: osteogenic medium, 100 nM, 7 days, natural hormone 1 = 100%
Description: Mature adipocytes from the adipose tissue of mammals such as humans and rodents can be dedifferentiated into pluripotent cells using ceiling culture. Dedifferentiated fat (DFAT) cells have potential applications in both regenerative medicine and injury healing, as well as mesenchymal stem cells, embryonic stem cells, and induced pluripotent stem cells. The osteogenic activity of vitamin D derivatives was assessed based on alkaline phosphatase (ALP) activity.
Samples of human subcutaneous adipose tissue were obtained from patients who underwent surgery in the Department of Pediatric Surgery at Nihon University Itabashi Hospital (Tokyo, Japan). The patients gave their written informed consent, and the Ethics Committee of Nihon University School of Medicine approved this study. We prepared dedifferentiated fat (DFAT) cells using the ceiling culture method, as described previously. Briefly, the adipose tissue (approximately 1 g) was cut into small pieces and digested with a 0.1% type I collagenase solution (Koken Co., Ltd., Tokyo, Japan). […] The cells that adhered to the upper surface of the flasks were cultured for conversion to dedifferentiated fat cells. […] Cells at passages 2–4 were used for differentiation experiments.
Cells were grown to confluency in 24-well plates and incubated for a week in DMEM containing 10% FBS, 100 nM dexamethasone (Merk), 10 mM β-glycerophosphate (Merk), and […] L-ascorbic acid-2-phosphate (Merk), with 100 nM of each compound. The induction medium was replaced on day 4. The alkaline phosphatase (ALP) activity in the cell lysates was determined on day 7 with a lab assay ALP kit (Fujifilm wako). The total protein content was determined with the BCA protein assay kit (Thermo Fisher Scientific). ALP levels were normalized to the total protein content.

Structure (SMILES) | IC50 [1] [nM] | EC50 [2] [nM] | IC50 [3] [nM] | Transcriptional Activity % Efficacy of That of 1 [2] [%] | VDR affinity, % of that of 1 [1] [%] | ALP activity [4] [%]
C=C1C[C@H](C[C@@H](C)[C@H]2CC[C@H]3/C(=C/C=C4/C[C@@H](O)C[C@H](O)C4=C)CCC[C@]23C)OC1=O [TEI-9647, (23S)-25-dehydro-1α-hydroxyvitamin D3-26,23-lactone] | 1 | 50 | 100 |  |  | 
C=C1/C(=C\C=C2/CCC[C@]3(C)[C@@H]([C@H](C)CC#C[C@H](O)C45CC6CC(CC(C6)C4)C5)CC[C@@H]23)C[C@@H](O)C[C@@H]1O [ADOR2] | 0.6 | 5.7 |  | > 52 |  | 
C=C1[C@H](O)CC(=C/C=C2\CCC[C@]3(C)[C@@H]([C@@H](C)/C=C/C[C@H](O)CC45CC6CC(CC(C6)C4)C5)CC[C@@H]23)C[C@H]1O [ADMI3, (25S)-26-adamantyl-25-hydroxy-2-methylene-22,23-didehydro-19,27-dinor-20-epi-vitamin D3] | 0.6 |  |  | 10 | 17 | 
C=C1[C@H](O)CC(=C/C=C2\CCC[C@]3(C)[C@@H]([C@@H](C)/C=C/C[C@@H](O)C45CC6CC(CC(C6)C4)C5)CC[C@@H]23)C[C@H]1O [ADTT] | 0.13 | 1 | 3 | 15 | 67 | 
C=C1/C(=C\C=C2/CCC[C@]3(C)[C@@H]([C@H](C)/C=C/[C@@H](O)C4(C(=O)O/C=C\C(=O)OCC)CC4)CC[C@@H]23)C[C@@H](O)C[C@@H]1O [ZK168281] |  |  | 50 |  |  | 
C=C1/C(=C\C=C2/CCC[C@]3(C)[C@@H]([C@H](C)CC#C[C@@H](O)C45CC6CC(CC(C6)C4)C5)CC[C@@H]23)C[C@@H](O)C[C@@H]1O [ADOR1, 25 S-sdamantyl-23-yne-26,27-dinor-1α,25-dihydroxyvitamin D(3)] | 0.24 | 0.03 |  | 87 |  | 
C=C1/C(=C\C=C2/CCC[C@]3(C)[C@@H]([C@H](C)CCCC(C)(C)O)CC[C@@H]23)C[C@@H](O)C[C@@H]1O [1,25(OH)2D3, 1α,25-dihydroxyvitamin D3] |  |  |  |  |  | 100

From PMC10377034, “Syntheses of 25-Adamantyl-25-alkyl-2-methylidene-1α,25-dihydroxyvitamin D3 Derivatives with Structure–Function Studies of Antagonistic and Agonistic Active Vitamin D Analogs” (Biomolecules, 2023)
